Target: T1, Cy5-labeled sSema4D (Homo sapiens, UniProt Q92854)
T1 construct: purchased Novoprotein Ltd. (Suzhou, China)
T1 sequence (Q92854 22-734 limits assumed): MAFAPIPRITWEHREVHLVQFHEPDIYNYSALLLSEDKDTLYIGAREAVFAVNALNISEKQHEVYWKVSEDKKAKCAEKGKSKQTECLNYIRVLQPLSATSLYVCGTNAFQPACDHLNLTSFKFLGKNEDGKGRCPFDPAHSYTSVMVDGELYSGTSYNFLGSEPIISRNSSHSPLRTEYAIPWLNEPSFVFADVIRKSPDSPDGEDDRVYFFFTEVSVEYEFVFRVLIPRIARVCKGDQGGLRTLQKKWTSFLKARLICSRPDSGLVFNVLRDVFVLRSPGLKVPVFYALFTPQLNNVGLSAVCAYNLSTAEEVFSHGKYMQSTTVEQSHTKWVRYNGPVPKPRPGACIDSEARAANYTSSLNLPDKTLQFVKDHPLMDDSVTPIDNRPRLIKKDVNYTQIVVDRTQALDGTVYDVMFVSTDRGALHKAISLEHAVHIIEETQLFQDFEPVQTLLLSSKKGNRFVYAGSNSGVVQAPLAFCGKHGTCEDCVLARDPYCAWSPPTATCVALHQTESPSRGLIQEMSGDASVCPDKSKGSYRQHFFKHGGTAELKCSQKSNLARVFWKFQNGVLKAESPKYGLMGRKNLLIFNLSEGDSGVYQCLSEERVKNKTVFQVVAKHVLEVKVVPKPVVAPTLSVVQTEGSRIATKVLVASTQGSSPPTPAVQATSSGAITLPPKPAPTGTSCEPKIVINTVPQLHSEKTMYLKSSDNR
Assay: CLSM recognition and capture of sSema4D
Type: binding
Conditions: FITC-labeled SSP with Cy5-labeled sSema4D, 6 h
Procedure: FITC‐labeled SSP‐1 or SSP‐2 and Cy5‐labeled sSema4D proteins were synthesized. Cy5‐labeled sSema4D were incubated with FITC‐labeled SSP‐1 and SSP‐2 nanostructure solutions for 6 h, respectively. […]
a resolution of 1.0 nm and a scanning speed of 300 nm/min. For each measurement, three spectra were collected and averaged.
CLSM observation. Sema4D protein was purchased from Novoprotein Ltd. (Suzhou, China). Sema4D protein cultured with SSP-1 or SSP-2 nanomaterials (30 μM) for 4 h were imaged using a Zeiss LSM710 confocal laser scanning microscope
(Ultra-VIEWVox, PerkinElmer). The parameters of confocal laser scanning microscope was a 40× objective lens.
Patient. Vitreous humor samples of DR patients were obtained immediately before intravitreal injection of anti-VEGF agents. Control vitreous humor samples were collected from nondiabetic patients receiving surgery for idiopathic macular hole. All of the human vitreous humor samples were collected based on informed consent. The vitreous samples were centrifuged at 4°C, and the supernatants were aliquoted into several sterile tubes and stored at -80°C. The procedure was approved by an ethics committee of Tongji Medical College, Huazhong University of Science and Technology, and strictly followed the Declaration of Helsinki guidelines.
Cell culture. […]

| recognition and trapping of sSema4D (merge images) | Substance |
| --- | --- |
| could completely cover the sSema4D | C16‐FFVLK‐KNKAAKG [SSP-2, smart supramolecular peptide, C16‐FFVLK‐KNKAAKG, self-assembling, captures sSema4D] |
| could completely cover the sSema4D | C16‐FFVLK‐KQKRPRH [SSP-1, smart supramolecular peptide, C16‐FFVLK‐KQKRPRH, self-assembling, captures sSema4D] |

— PMC9875641, “Ophthalmic Solution of Smart Supramolecular Peptides to Capture Semaphorin 4D against Diabetic Retinopathy” (Advanced Science, 2022)
